Consider two compounds from paper PMC2976827 (Neuropharmacology, 2010).

The Kd is a measure of binding affinity in units of concentration. A higher Kd goes with lower affinity.

The target of this test is T1, GluK1 (Rattus norvegicus, UniProt P22756, DEL560-681).
T1 sequence (P22756 446-559): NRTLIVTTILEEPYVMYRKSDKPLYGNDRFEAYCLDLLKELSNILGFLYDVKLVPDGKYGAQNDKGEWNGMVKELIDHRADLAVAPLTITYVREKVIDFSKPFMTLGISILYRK
T1 sequence (P22756 682-821): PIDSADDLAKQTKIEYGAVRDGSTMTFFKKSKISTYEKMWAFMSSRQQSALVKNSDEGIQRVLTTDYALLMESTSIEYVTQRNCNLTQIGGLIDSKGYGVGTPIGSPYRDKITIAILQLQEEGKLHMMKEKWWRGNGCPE
In words: crystal structure. The test is classed as binding.

Structures are written as SMILES.

As to `Cc1cn(C[C@H](N)C(=O)O)c(=O)n(Cc2c(C(=O)O)sc(Br)c2Br)c1=O` [UBP315, (S)-1-(2-Amino-2-carboxyethyl)-3-(2-carboxy-4,5-dibromothiophene-3-yl-methyl)-5-methylpyrimidine-2,4-dione], the Kd amounted to 33 nM. For the compound `N[C@@H](Cn1cc(Br)c(=O)n(Cc2ccsc2C(=O)O)c1=O)C(=O)O` [UBP318, (S)-1-(2-amino-2-carboxyethyl)-5-bromo-3-(2-carboxythiophene-3-yl-methyl)pyrimidine-2,4-dione], the Kd came out at 186 nM.
